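Cells were grown in 96-well plates and exposed to each compound for 48 hours at five concentrations; endpoints were interpolated linearly between bracketing concentrations, or set to the highest concentration if not reached. GI50 = concentration required for 50% inhibition of growth.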 Active and inactive are the calls of the source. Rule as the data show it: active = GI50 up to about 1.1 µM and inactive = higher.
Legend:
Experiment in all cases: growth of human tumour cells (NCI), 48 h
[1] = test system: ACHN
[2] = test system: DU-145
[3] = test system: HOP-62
[4] = test system: HOP-92
[5] = test system: Hs-578T
[6] = test system: K562
[7] = test system: LOX IMVI
[8] = test system: MDA-MB-231
[9] = test system: Malme-3M
[10] = test system: NCI-H522
[11] = test system: OVCAR-4
[12] = test system: RXF 393
[13] = test system: SF-539
[14] = test system: SK-MEL-28
[15] = test system: SK-MEL-5
[16] = test system: SN12C
[17] = test system: SNB-75
[18] = test system: SR
[19] = test system: UO-31
[20] = test system: CCRF-CEM

Structure (SMILES) | GI50 [1] | GI50 [2] | GI50 [3] | GI50 [4] | GI50 [5] | GI50 [6] | GI50 [7] | GI50 [8] | GI50 [9] | GI50 [10] | GI50 [11] | GI50 [12] | GI50 [13] | GI50 [14] | GI50 [15] | GI50 [16] | GI50 [17] | GI50 [18] | GI50 [19] | GI50 [20]
NCCC1CN(C(=O)OCc2ccccc2)c2ccccc21 (stereo not drawn) | 22.6 µM (inactive) | 17.3 µM (inactive) | 23.1 µM (inactive) | 5.45 µM (inactive) | 26.2 µM (inactive) | 4.58 µM (inactive) | 4.12 µM (inactive) | 19.1 µM (inactive) | 14.8 µM (inactive) | 14.5 µM (inactive) | 20.4 µM (inactive) | 8.45 µM (inactive) | 3.44 µM (inactive) | 18.6 µM (inactive) | 11.2 µM (inactive) | 13.2 µM (inactive) | 12.3 µM (inactive) | 2.9 µM (inactive) | 12.7 µM (inactive) | 
C[C@@H](Br)[C@@H]1CC[C@H]2c3[nH]c4ccccc4c3CCN2C1 | 33.8 µM (inactive) | 29.3 µM (inactive) | 18.6 µM (inactive) | 18.1 µM (inactive) | 13.3 µM (inactive) | 15.5 µM (inactive) | 16.5 µM (inactive) | 16.1 µM (inactive) | 18.8 µM (inactive) | 13.2 µM (inactive) | 28 µM (inactive) | 20.4 µM (inactive) |  | 24.4 µM (inactive) | 15.9 µM (inactive) |  | 18.5 µM (inactive) | 16.5 µM (inactive) | 24.8 µM (inactive) | 17.5 µM (inactive)
CC(=O)OCc1nc(C#N)c(N)o1 | > 100 µM (inactive) | > 100 µM (inactive) | > 100 µM (inactive) | > 100 µM (inactive) | > 100 µM (inactive) | > 100 µM (inactive) | > 100 µM (inactive) | > 100 µM (inactive) | > 100 µM (inactive) | > 100 µM (inactive) | > 100 µM (inactive) | > 100 µM (inactive) |  | > 100 µM (inactive) | > 100 µM (inactive) | > 100 µM (inactive) |  | > 100 µM (inactive) | > 100 µM (inactive) | > 100 µM (inactive)
CSc1ccc(-c2cc(-c3nc4ccccc4[nH]3)no2)cc1 | 25.2 µM (inactive) | 13.6 µM (inactive) | 34.4 µM (inactive) | 50.6 µM (inactive) | 37.1 µM (inactive) | 22.1 µM (inactive) | 24.3 µM (inactive) | 40.6 µM (inactive) | 35 µM (inactive) | 20.3 µM (inactive) | 0.0562 µM (active) |  | 24.7 µM (inactive) | 27.6 µM (inactive) | 15.9 µM (inactive) | 50.2 µM (inactive) | 37.6 µM (inactive) | 23.6 µM (inactive) | 13.1 µM (inactive) | 18.4 µM (inactive)
OCC(O)C(O)C(C=NNc1ncnc2ccc(Br)cc12)=NNc1ncnc2ccc(Br)cc12 (stereo not drawn) | 0.729 µM (active) | 1.34 µM (inactive) | 2.64 µM (inactive) | 2.24 µM (inactive) | 9.62 µM (inactive) | 2.25 µM (inactive) | 0.745 µM (active) | 1.88 µM (inactive) | 0.378 µM (active) | 0.383 µM (active) | 0.383 µM (active) | 2.14 µM (inactive) | 1.94 µM (inactive) | 1.45 µM (inactive) | 0.968 µM (active) | 2.39 µM (inactive) | 2.46 µM (inactive) | 0.492 µM (active) | 2.78 µM (inactive) | 
OCC1OC(NCCNCCNC2OC(CO)C(O)C(O)C2O)C(O)C(O)C1O (stereo not drawn) | > 100 µM (inactive) | > 100 µM (inactive) | > 100 µM (inactive) | > 100 µM (inactive) | > 100 µM (inactive) | > 100 µM (inactive) | > 100 µM (inactive) | > 100 µM (inactive) | > 100 µM (inactive) | > 100 µM (inactive) |  | > 100 µM (inactive) | > 100 µM (inactive) | > 100 µM (inactive) | > 100 µM (inactive) | > 100 µM (inactive) | > 100 µM (inactive) | > 100 µM (inactive) | > 100 µM (inactive) | > 100 µM (inactive)
CC(=O)O[C@H]1CC[C@@]2(C)C(=CC[C@@H]3[C@@H]2CC[C@]2(C)c4c(C)n[nH]c4C[C@@H]32)C1 | 17.9 µM (inactive) | 14.2 µM (inactive) | 21.1 µM (inactive) | 21 µM (inactive) | 17.6 µM (inactive) | 2.54 µM (inactive) | 31.5 µM (inactive) | 21.1 µM (inactive) | 3.75 µM (inactive) | 6.92 µM (inactive) | 15.7 µM (inactive) | 11.4 µM (inactive) |  | 20.7 µM (inactive) | 13.4 µM (inactive) | 19.4 µM (inactive) | 12.2 µM (inactive) | 22.3 µM (inactive) | 17.7 µM (inactive) | 4.97 µM (inactive)
COc1cc2c(cc1C1COc3cc4occc4cc3C1=O)OCO2 (stereo not drawn) | > 100 µM (inactive) | > 100 µM (inactive) | 40.3 µM (inactive) | 91 µM (inactive) | 28.1 µM (inactive) |  | > 100 µM (inactive) | > 100 µM (inactive) | 89.1 µM (inactive) | > 100 µM (inactive) | 2.81 µM (inactive) | 36.3 µM (inactive) | 35.6 µM (inactive) | 40.1 µM (inactive) | > 100 µM (inactive) | > 100 µM (inactive) | > 100 µM (inactive) | 49.1 µM (inactive) | > 100 µM (inactive) | > 100 µM (inactive)
O=C(c1ccccc1)c1c(-c2ccccc2)n(-c2ccccc2)[nH]c(=O)c1=O | 22.2 µM (inactive) | > 100 µM (inactive) | 28.8 µM (inactive) | 31.2 µM (inactive) | 21.6 µM (inactive) | 14.8 µM (inactive) | 25.6 µM (inactive) | 20.2 µM (inactive) | 22.5 µM (inactive) | 0.361 µM (active) | 32.6 µM (inactive) |  | 20.2 µM (inactive) | > 100 µM (inactive) | > 100 µM (inactive) | 69 µM (inactive) |  | 23.8 µM (inactive) | 48.4 µM (inactive) | 15.5 µM (inactive)
CC(C)(C)OC(=O)CN1CCNCCN(CC(=O)OC(C)(C)C)CCNCC1 | > 100 µM (inactive) | > 100 µM (inactive) | > 100 µM (inactive) | > 100 µM (inactive) | > 100 µM (inactive) | 47 µM (inactive) | 86.7 µM (inactive) | > 100 µM (inactive) |  | > 100 µM (inactive) | > 100 µM (inactive) | > 100 µM (inactive) | > 100 µM (inactive) | > 100 µM (inactive) | 50.6 µM (inactive) | > 100 µM (inactive) | > 100 µM (inactive) | 26.9 µM (inactive) | > 100 µM (inactive) | 57 µM (inactive)
N#Cc1cnc(-n2[nH]c3c(c2=O)CCCC3)[nH]c1=O | 47.2 µM (inactive) | 64.1 µM (inactive) |  | 35.2 µM (inactive) | > 100 µM (inactive) | 69.8 µM (inactive) |  | 39.9 µM (inactive) | 50 µM (inactive) | 57.3 µM (inactive) | 83.9 µM (inactive) | > 100 µM (inactive) | 43.9 µM (inactive) | 55.2 µM (inactive) | 48.1 µM (inactive) | 44.2 µM (inactive) | 0.264 µM (active) | 23.8 µM (inactive) | 38.5 µM (inactive) | 31.9 µM (inactive)
O=C(O)/C=C/C(=O)N1Cc2cc3ccccc3nc2C1 | > 100 µM (inactive) | > 100 µM (inactive) | > 100 µM (inactive) | > 100 µM (inactive) | > 100 µM (inactive) | > 100 µM (inactive) | > 100 µM (inactive) | > 100 µM (inactive) | > 100 µM (inactive) | > 100 µM (inactive) |  | > 100 µM (inactive) | > 100 µM (inactive) | > 100 µM (inactive) | > 100 µM (inactive) | > 100 µM (inactive) | > 100 µM (inactive) | > 100 µM (inactive) | > 100 µM (inactive) | 
CC(=O)N1C(OC(C)C)CC(C)N1c1ccccc1 (stereo not drawn) | > 10 µM (inactive) | > 10 µM (inactive) | > 10 µM (inactive) | > 10 µM (inactive) | > 10 µM (inactive) | > 10 µM (inactive) | > 10 µM (inactive) | > 10 µM (inactive) | > 10 µM (inactive) |  | > 10 µM (inactive) | > 10 µM (inactive) | > 10 µM (inactive) | > 10 µM (inactive) | > 10 µM (inactive) | > 10 µM (inactive) | > 10 µM (inactive) | > 10 µM (inactive) |  | > 10 µM (inactive)
COC1CC(C)(N)C(O)C(C)O1 (stereo not drawn) | > 100 µM (inactive) | > 100 µM (inactive) | > 100 µM (inactive) | > 100 µM (inactive) | > 100 µM (inactive) | > 100 µM (inactive) | > 100 µM (inactive) | > 100 µM (inactive) | > 100 µM (inactive) | > 100 µM (inactive) |  | > 100 µM (inactive) | > 100 µM (inactive) | > 100 µM (inactive) | > 100 µM (inactive) | > 100 µM (inactive) | > 100 µM (inactive) | > 100 µM (inactive) | > 100 µM (inactive) | > 100 µM (inactive)
CCCCCC(=O)N[C@@H](c1ccccc1)C(O)C(=O)OC1C[C@@]2(O)C(OC(=O)c3ccccc3)C3[C@](C)(C(=O)[C@H](O)C(=C1C)C2(C)C)C(OC1OCC(O)C(O)C1O)C[C@H]1OC[C@@]31OC(C)=O (stereo partly drawn) | > 89.1 µM (inactive) | 2.88 µM (inactive) | 5.05 µM (inactive) | 24.6 µM (inactive) | 0.198 µM (active) | 0.966 µM (active) |  | 67.6 µM (inactive) |  | 0.245 µM (active) | > 100 µM (inactive) | 1.98 µM (inactive) | 0.494 µM (active) | 2.7 µM (inactive) | 1.9 µM (inactive) | 3.54 µM (inactive) | 0.147 µM (active) | 2.41 µM (inactive) | > 75.9 µM (inactive) | 1.57 µM (inactive)

Reference: ChEMBL document CHEMBL1201862, “PubChem BioAssay data set” (2004)
